Our source for the inhibition and Ki values is patent US7851474B2, “Dipiperazinyl ketones and related analogues” (Neurogen Corporation, priority 2005, dated 2010).

A word on the inhibition: it is the drop in the measured response relative to a control, in per cent. Broadly, the Ki is the equilibrium dissociation constant of an inhibitor or competing ligand from its target.

Some results are limits rather than exact numbers.

In the first assay the target is T1, chimeric human H3 receptor (Homo sapiens, UniProt Q9Y5N1, E19D).
T1 construct: made in house; host or cells: Sf9 insect cells (baculovirus infection); P2 membrane preparation
T1 sequence (Q9Y5N1 with tags, fused parts or gaps E19D): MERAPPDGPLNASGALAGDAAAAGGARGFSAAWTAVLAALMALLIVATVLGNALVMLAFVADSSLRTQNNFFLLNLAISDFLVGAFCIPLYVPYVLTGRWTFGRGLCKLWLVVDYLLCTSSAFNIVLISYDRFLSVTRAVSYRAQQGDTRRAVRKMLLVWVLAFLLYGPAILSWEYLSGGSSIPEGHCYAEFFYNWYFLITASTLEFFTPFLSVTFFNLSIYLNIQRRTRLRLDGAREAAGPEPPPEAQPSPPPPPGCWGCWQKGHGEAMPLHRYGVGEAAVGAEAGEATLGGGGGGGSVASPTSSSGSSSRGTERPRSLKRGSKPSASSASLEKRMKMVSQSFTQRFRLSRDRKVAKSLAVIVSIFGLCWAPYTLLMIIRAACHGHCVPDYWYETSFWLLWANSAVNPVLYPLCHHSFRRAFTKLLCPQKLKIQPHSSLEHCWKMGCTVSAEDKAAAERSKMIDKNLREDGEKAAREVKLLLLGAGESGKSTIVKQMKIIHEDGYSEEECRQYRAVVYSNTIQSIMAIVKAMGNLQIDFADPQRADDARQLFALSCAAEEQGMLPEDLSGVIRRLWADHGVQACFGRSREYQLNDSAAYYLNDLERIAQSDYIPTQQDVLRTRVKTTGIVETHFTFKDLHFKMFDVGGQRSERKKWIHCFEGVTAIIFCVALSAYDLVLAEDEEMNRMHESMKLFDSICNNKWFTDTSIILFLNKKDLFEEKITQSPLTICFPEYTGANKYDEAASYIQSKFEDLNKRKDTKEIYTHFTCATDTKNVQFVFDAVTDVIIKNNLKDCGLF
The assay is described as follows: Chimeric human H3 receptor screening GTP binding assay (inhibition of histamine-stimulated GTP-gamma35S binding, Example 8). It counts as biochemical. Particulars: 1 h; "+" in Ki of Table II; assay of Example 8; read-out: percent inhibition of agonist-induced GTP-gammaS binding to H3. The procedure:
This Example illustrates a representative screening assay for evaluating inhibition of histamine-stimulated GTP-gamma^35S binding. Such GTP binding activity can be used to identify H3 antagonists and inverse agonists. A compound analyzed in this assay is referred to herein as a “test compound,” and the initial identification of antagonists and inverse agonists is performed using a test compound concentration of 4 μM.
Four independent baculoviral stocks (one directing the expression of the chimeric human H3 receptor and three directing the expression of each of the three subunits of a heterotrimeric G-protein) are used to infect a culture of Sf9 cells as described above. P2 membranes are prepared as described above, and are resuspended by Dounce homogenization (tight pestle) in GTP binding assay buffer (50 mM Tris pH 7.4, 120 mM NaCl, 5 mM MgCl2, 2 mM EGTA, 1 mg/ml BSA, 0.2 mg/ml bacitracin, 0.02 mg/ml aprotinin, 0.01 mg/ml saponin, 10 μM GDP) and added to assay tubes at a concentration of 35 μg protein/reaction tube. Non-radiolabeled test compounds are added to separate reactions at a concentration of 4 μM along with 1 μM histamine (agonist). Reactions are initiated by the addition of 125 pM GTP-gamma^35S with a final assay volume of 0.20 ml.
After a 60-min incubation at room temperature, reactions are terminated by vacuum filtration over GF/C filters (pre-soaked in 50 mM Tris pH 7.4, 120 mM NaCl plus 0.1% BSA) followed by washing with ice-cold buffer (50 mM Tris pH 7.4, 120 mM NaCl). The amount of receptor-bound (and thereby membrane-bound) GTP-gamma^35S is determined by measuring the bound radioactivity, preferably by liquid scintillation spectrometry of the washed filters. Non-specific binding is determined using 10 uM GTP-gammaS and typically represents less than 5 percent of total binding. After subtraction of non-specific binding, data is expressed as percent inhibition of 1 μM histamine signal.
Neutral antagonists are those test compounds that reduce the histamine-stimulated GTP binding activity towards, but not below, baseline levels. In contrast, in the absence of added histamine, inverse agonists reduce the GTP binding activity of the receptor-containing membranes below baseline. Any test compound that elevates GTP binding activity above baseline in the absence of added histamine in this assay is defined as having agonist activity.
(In general: GTPγS is a poorly hydrolysed GTP analogue; its binding reports G protein activation.)
Take `Cc1ccccc1/C=C/C(=O)N1CCN(CC(=O)N2CCN(C3CCC3)CC2)CC1` [Compound 526, 1-cyclobutyl-4-({4-[(2E)-3-(2-methylphenyl)prop-2-enoyl]piperazin-1-yl}acetyl)piperazine]: the inhibition at 4 µM is over 90%.
On the same count and under the same terms, next, `O=C(/C=C/c1ccc(OCc2ccc(F)cc2)cc1)N1CCN(CC(=O)N2CCN(C3CCC3)CC2)CC1` [Compound 531, 1-cyclobutyl-4-({4-[(2E)-3-{4-[(4-fluorobenzyl)oxy]phenyl}prop-2-enoyl]piperazin-1-yl}acetyl)piperazine]: over 90%.
The same measure, in the same setting: next, `COc1ccc(CC(=O)N2CCN(CC(=O)N3CCN(C4CCC4)CC3)CC2)cc1OC` [Compound 547, 1-cyclobutyl-4-({4-[(3,4-dimethoxyphenyl)acetyl]piperazin-1-yl}acetyl)piperazine]: over 90%; `O=C(COc1ccc(Cl)c(Cl)c1)N1CCN(CC(=O)N2CCN(C3CCC3)CC2)CC1` [Compound 545, 1-cyclobutyl-4-({4-[(3,4-dichlorophenoxy)acetyl]piperazin-1-yl}acetyl)piperazine]: over 90%.

Still in this assay, the particulars now being: 1 h; Table II "Ki", symbol "+": assay described in Example 8; read-out: percent inhibition of agonist-induced GTP-gammaS binding to H3.
Regarding `CCC(C)N1CCN(C(=O)CN2CCN(C(=O)C3CCCO3)CC2)CC1` (centres unmarked) [Compound 886, 1-sec-butyl-4-{[4-(tetrahydrofuran-2-ylcarbonyl)piperazin-1-yl]acetyl}piperazine], the inhibition at 4 µM was over 90%.
The same measure, in the same setting: next, `O=C(CN1CCN(C(=O)c2ccccn2)CC1)N1CCN(C2CCC2)CC1` [Compound 799, 1-cyclobutyl-4-{[4-(pyridin-2-ylcarbonyl)piperazin-1-yl]acetyl}piperazine]: over 90%; `O=C(Cc1ccccc1)N1CCN(CC(=O)N2CCN(C3CCC3)CC2)CC1` [Compound 798, 1-cyclobutyl-4-{[4-(phenylacetyl)piperazin-1-yl]acetyl}piperazine]: over 90%.
With `O=C(COc1ccccc1)N1CCN(CC(=O)N2CCN(C3CCC3)CC2)CC1` [Compound 797, 1-cyclobutyl-4-{[4-(phenoxyacetyl)piperazin-1-yl]acetyl}piperazine], the inhibition at 4 µM was over 90%.
On the same count and under the same terms, next, `Cn1c(C(=O)N2CCN(CC(=O)N3CCN(C4CCC4)CC3)CC2)cc2ccccc21` [Compound 887, 2-({4-[2-(4-cyclobutylpiperazin-1-yl)-2-oxoethyl]piperazin-1-yl}carbonyl)-1-methyl-1H-indole]: over 90%.

Still in this assay, the particulars now being: 1 h; Table II, "+" in the column headed Ki; assay of Example 8; read-out: percent inhibition of agonist-induced GTP-gammaS binding to H3.
`O=C(CN1CCN(C(=O)c2cccc3ccccc23)CC1)N1CCN(C2CCC2)CC1` [Compound 662, 1-cyclobutyl-4-{[4-(1-naphthoyl)piperazin-1-yl]acetyl}piperazine]: the inhibition at 4 µM was over 90%.
On the same count and under the same terms, next, `O=C(CN1CCN(C(=O)c2ccc(-n3cccc3)nc2)CC1)N1CCN(C2CCC2)CC1` [Compound 635, 1-cyclobutyl-4-[(4-{[6-(1H-pyrrol-1-yl)pyridin-3-yl]carbonyl}piperazin-1-yl)acetyl]piperazine]: over 90%; `O=C(Cc1cccc2ccccc12)N1CCN(CC(=O)N2CCN(C3CCC3)CC2)CC1` [Compound 663, 1-cyclobutyl-4-{[4-(1-naphthylacetyl)piperazin-1-yl]acetyl}piperazine]: over 90%; `O=C(CN1CCN(C(=O)c2ccsc2)CC1)N1CCN(C2CCC2)CC1` [Compound 765, 1-cyclobutyl-4-{[4-(3-thienylcarbonyl)piperazin-1-yl]acetyl}piperazine]: over 90%.
On the same count and under the same terms, the figure for `CSc1ccccc1C(=O)N1CCN(CC(=O)N2CCN(C3CCC3)CC2)CC1` [Compound 577, 1-cyclobutyl-4-({4-[2-(methylthio)benzoyl]piperazin-1-yl}acetyl)piperazine] is over 90%; for `O=C(Cc1cccc(C(F)(F)F)c1F)N1CCN(CC(=O)N2CCN(C3CCC3)CC2)CC1` [Compound 623, 1-cyclobutyl-4-[(4-{[2-fluoro-3-(trifluoromethyl)phenyl]acetyl}piperazin-1-yl)acetyl]piperazine] it is over 90%.

Staying with this assay, now noted: 1 h; Table II; assay of Example 8; "+" in Ki; read-out: percent inhibition of agonist-induced GTP-gammaS binding to H3.
Regarding `O=C(CN1CCN(C(=O)c2cnc3ccccc3c2)CC1)N1CCN(C2CCC2)CC1` [Compound 985, 3-({4-[2-(4-cyclobutylpiperazin-1-yl)-2-oxoethyl]piperazin-1-yl}carbonyl)quinoline], the inhibition at 4 µM was over 90%.

The same assay, now with this note: 1 h; assay described in Example 8; symbol + in column headed Ki of Table II; read-out: percent inhibition of agonist-induced GTP-gammaS binding to H3.
Take `O=C(CN1CCN(C(=O)c2ccc(F)c(Cl)c2)CC1)N1CCN(C2CCC2)CC1` [Compound 296, 1-(3-chloro-4-fluorobenzoyl)-4-[2-(4-cyclobutylpiperazin-1-yl)-2-oxoethyl]piperazine]: the inhibition at 4 µM was over 90%.
On the same count and under the same terms, next, `CCCCc1ccc(C(=O)N2CCN(CC(=O)N3CCN(C4CCC4)CC3)CC2)nc1` [Compound 412, 1-[(5-butylpyridin-2-yl)carbonyl]-4-[2-(4-cyclobutylpiperazin-1-yl)-2-oxoethyl]piperazine]: over 90%.
In the case of `O=C(Cc1ccc2c(c1)OCO2)N1CCN(CC(=O)N2CCN(C3CCC3)CC2)CC1` [Compound 259, 1-(1,3-benzodioxol-5-ylacetyl)-4-[2-(4-cyclobutylpiperazin-1-yl)-2-oxoethyl]piperazine], the inhibition at 4 µM is over 90%.
The same measure, in the same setting: next, `O=C(/C=C/c1ccc(Cl)cc1)N1CCN(CC(=O)N2CCN(C3CCC3)CC2)CC1` [Compound 391, 1-[(2E)-3-(4-chlorophenyl)prop-2-enoyl]-4-[2-(4-cyclobutylpiperazin-1-yl)-2-oxoethyl]piperazine]: over 90%.
On the same count and under the same terms, the figure for `O=C(CN1CCN(C(=O)c2ccccc2Cc2ccccc2)CC1)N1CCN(C2CCC2)CC1` [Compound 270, 1-(2-benzylbenzoyl)-4-[2-(4-cyclobutylpiperazin-1-yl)-2-oxoethyl]piperazine] is over 90%; for `Cc1cc(C(=O)N2CCN(CC(=O)N3CCN(C4CCC4)CC3)CC2)n(C(C)(C)C)n1` [Compound 377, 1-[(1-tert-butyl-3-methyl-1H-pyrazol-5-yl)carbonyl]-4-[2-(4-cyclobutylpiperazin-1-yl)-2-oxoethyl]piperazine] it is over 90%; for `O=C(COc1ccccc1Cl)N1CCN(CC(=O)N2CCN(C3CCC3)CC2)CC1` [Compound 383, 1-[(2-chlorophenoxy)acetyl]-4-[2-(4-cyclobutylpiperazin-1-yl)-2-oxoethyl]piperazine] it is over 90%.
The same measure, in the same setting: next, `O=C(CN1CCN(C(=O)c2ccc(Br)s2)CC1)N1CCN(C2CCC2)CC1` [Compound 410, 1-[(5-bromo-2-thienyl)carbonyl]-4-[2-(4-cyclobutylpiperazin-1-yl)-2-oxoethyl]piperazine]: over 90%; `O=C(CN1CCN(C(=O)c2sccc2Cl)CC1)N1CCN(C2CCC2)CC1` [Compound 398, 1-[(3-chloro-2-thienyl)carbonyl]-4-[2-(4-cyclobutylpiperazin-1-yl)-2-oxoethyl]piperazine]: over 90%; `O=C(Cc1ccc(Br)cc1)N1CCN(CC(=O)N2CCN(C3CCC3)CC2)CC1` [Compound 403, 1-[(4-bromophenyl)acetyl]-4-[2-(4-cyclobutylpiperazin-1-yl)-2-oxoethyl]piperazine]: over 90%.

Another assay addresses T1, chimeric human H3 receptor. As to the kind of experiment: Chimeric human H3 receptor GTP binding assay (agonist-stimulated GTP-gamma35S binding, Example 7). Particulars: Table II; assay of Example 7; "*" in Ki; read-out: Ki. The assay is classed as biochemical. The gist of the method: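 Sf9 membranes co-expressing the chimeric receptor and heterotrimeric G-protein subunits, 35 μg protein per tube, in pH 7.4 Tris buffer with 10 μM GDP. Test compounds at 10^−10 to 10^−6 M with 1 μM histamine, 60 min at room temperature. Filter-bound GTP-gamma^35S read by scintillation; IC50 from non-linear regression of dose-response curves.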
For `CCN(C(=O)c1ccc(N2CCN(CC(=O)N3CCN(C4CCC4)CC3)CC2)cc1)C1CCCCC1` [Compound 1129, 4-{4-[2-(4-cyclobutylpiperazin-1-yl)-2-oxoethyl]piperazin-1-yl}-N-cyclohexyl-N-ethylbenzamide], the Ki is under 1 µM.

Staying with this assay, now noted: assay of Example 7; "*" in Ki of Table II; read-out: Ki.
With `COc1cccc(C(=O)NC2CCN(CC(=O)N3CCN(C4CCC4)CC3)C2)c1` (centres unmarked) [Compound 1236, N-{1-[2-(4-cyclobutylpiperazin-1-yl)-2-oxoethyl]pyrrolidin-3-yl}-3-methoxybenzamide], the inhibition constant (Ki) was under 1 µM.
For the compound “N-{1-[2-(4- cyclobutylpiperazin-1-yl)- 2-oxoethyl]piperldin-4-yl}- 2-naphthamide [Compound 1207]”, the Ki was under 1 µM.
